Assay results reported in patent US20190374647A1, “STABLE LIPOSOMES FOR DRUG DELIVERY” (YISSUM RESEARCH DEVELOPMENT COMPANY OF THE HEBREW …, priority 2012, published 2019).
Counter-ions that a name gives are not always drawn. Marks after values point to notes of the source that are not given here.

Assays:
[1] = cited from earlier work
[2] = Blood levels of doxorubicin in mice after single I.V. dose; assay type: in vivo, Balb/c mice; details: after 48 hours, FIG. 3
Method: At defined time-points (see Table 8 below, for composition of each formulation see Tables 5 and 6), mice of each group were euthanized with CO2 and terminal blood was withdrawn from the retro-orbital sinus and collected in labeled K3EDTA tubes. The blood samples were then immediately subjected to plasma separation procedure (4000 rpm for 10 minutes at 4° C.). The plasma, red blood cells fraction and whole blood of each mouse has been collected in labeled CryoTubes and stored at −80° C. pending analysis. Doxorubicin was extracted from the samples as follows. […] From the upper phase, 100 μl of the plasma diluted in A-IPA were diluted in 900 μl mobile phase for analysis and the contents of extracted doxorubicin was determined using fluorescence HPLC (as described in Gabizon et al. (1993) Pharm. Research 10(5):703-708).

[3] = Doxorubicin solubility in ammonium salt solutions; assay type: physicochemical
[4] = OVCAR-3 xenograft study, tolerability (body weight, clinical signs); assay type: in vivo
Method: (§1) G1 animals served as vehicle control and received 5 ml/kg saline. 2, G5 and G6 animals were treated with 8 mg/kg doxorubicin HCl, LC3-PLDMS-2 (PLMDS-2 are liposomes containing 250 mM ammonium methanesulfonate (MS) and remote loaded with doxorubicin (group 5 in the experiment), LC4_PLDMS-5 are liposomes containing 500 mM ammonium methanesulfonate (MS) and remote loaded with doxorubicin (group 6 in the experiment) (respectively, given intravenously (5 mL/kg dose volume) once weekly for 2 consecutive weeks. Body weight, general clinical observations and tumor size were monitored throughout the experimental period. Experimental groups were terminated when median tumor volume reached 2500 mm^3. Endpoint parameters such as body weight change, % ILS, Median tumor volume, TGI, % T/C, RTV, LCK, Tumor growth delay, TVDT and TVDTD were calculated. Tumor volumes were measured twice weekly using a digital vernier caliper recording length (L=longest axis) and width (W=shortest axis), and volume was calculated in mm^3 as L×W^2/2. Groups reaching a median tumor volume of 2500 mm^3 were terminated and the date of termination was used as the date of death for the purpose of survival calculations. The following parameters were calculated: median survival time (MST), percentage increased life span (% ILS) and median tumor volume (TV). Other measured, including median TV change; median tumor growth inhibition (TGI); % T/C; relative tumor volume (RTV); log cell kill (LCK); tumor growth delay; tumor volume doubling time (TVDT); and tumor volume doubling time delay (TVDTC), were derived from the median tumor volume measurements. Tumor growth regression was also plotted.
(§2) Mice bearing growing tumor were selected and randomized into 4 groups containing 8 animals in each based on a mean tumor size of ˜100 mm3. G1 animals served as vehicle control and received 5 ml/kg saline whereas G2, G5 and G6 animals received Doxorubicin HCl, LC3-PLDMS-2 or LC4-PLDMS-5, respectively, at a dose of 8 mg/kg. All the animals were dosed intravenously at the dose volume of 5 ml/kg weekly once for two weeks. Body weight, general clinical observations and tumor volume parameters were recorded during the experimental period. Groups reaching median tumor volume of 2500 mm^3 were terminated.
The body weight of each mouse was recorded at the time of randomization, on alternate days during dosing period and post-dosing period until the end of the study.

[5] = test system: human OVCAR-3 ovarian adenocarcinoma cells; assay: OVCAR-3 ovarian adenocarcinoma xenograft, anti-tumor efficacy; assay type: in vivo, athymic nude mice
Method: Female athymic nude mice were inoculated subcutaneously in the left flank with a suspension of 5×10^6 human OVCAR-3 ovarian adenocarcinoma cells (200 µL injection volume) and monitored for tumor growth. Animals were selected, randomized into four treatment groups (n=8 per group) with a balanced tumor size of ˜100 mm^3 according to the study design (Table 9) below.
as §1, §2
For preparation and administration of reference and test item, all the test items are ready to use formulations. The strength of test formulation is 2 mg/ml of doxorubicin HCl in sterile 5 ml vial. 2 ml of reference or test item formulation (i.e. Doxorubicin HCl, LC3-PLDMS-2 and LC4-PLDMS-5) was diluted to 0.5 ml normal saline to achieve 1.6 mg/ml. 100 μL of final test formulation was injected intravenously to 20 g of mouse to achieve the 8 mg/kg dose. Group G1 animals received normal saline at the dose volume of 5 ml/kg.

[6] = Doxorubicin remote loading encapsulation efficiency and short stability; assay type: physicochemical; details: for Encapsulation % (T0): doxorubicin
Method: In this stage the efficiency of remote loading encapsulation and encapsulation stability were studied. Liposomes were prepared as described above. […] All formulations were made from HSPC:Cholesterol:PEG-DSPE mole ratio of 54.5:41:4.5, briefly the lipids were hydrated and suspended in the various ammonium ions to form MLV. The MLV were downsized by extrusion followed by dialysis to remove external ammonium salt and form the gradient, finally drug was remote loaded into the gradient liposomes.

[7] = Doxorubicin accelerated chemical stability in ammonium-anion salt solutions; assay type: physicochemical; details: 4 hours at 70° C.; for Additional peaks: HPLC
Method: For accelerated stability the, chemical stability of doxorubicin in various ammonium-anions salts solutions was tested. Briefly, doxorubicin (2 mg/ml) was dissolved in various ammonium-anions salt solutions and incubated for 4 hours at the temperature of 70° C. At the end of 4 hours incubation doxorubicin concentration and the presence of doxorubicin degradation products were analyzed by HPLC using Agilent 1100 according to following protocol: Mobile phase: 50% MeOH, 40% phosphate buffer, pH=4, 10% Acetonitrile and 2% TEA Column: Phenomenex, Luna, C-18, Flow: 1 ml/min, detection wavelength 254 and 480 nm.

[8] = Topotecan remote loading encapsulation efficiency; assay type: physicochemical; details: 4 days storage at 5° C.
Method: Remote loading of topotecan were performed in the same way as the experiments described in Table 4 and Table 5 below for doxorubicin remote loading except that the drug concentration was determined from its absorbance at a wave length of 370 nm (which is the wavelength of maximum absorbance of topotecan).

[9] = 8 mg/kg i.v. once weekly for 2 weeks
[10] = counter anion 500 mM, salt pH 5.5
[11] = counter anion 500 mM, salt pH 6.2
[12] = counter anion 250 mM, salt pH 5.5
[13] = counter anion 500 mM, salt pH 5.53

O=C(O)[C@H]1OC(O)[C@H](O)[C@@H](O)[C@@H]1O (mixture of isomers) [Glucuronate]
Log P (log D at pH=5.5) value quoted in text [1]: < −2.3
LogD (acid)- at pH = 5.5 [1]: −5.38

O=S(=O)(O)CCCO [3-HydroxyPropane-1-Sulfonate]
LogP (acid) [1]: −2.59
LogD (acid)- at pH = 5.5 [1]: −5.39

COc1cccc2c1C(=O)c1c(O)c3c(c(O)c1C2=O)C[C@@](O)(C(=O)CO)C[C@@H]3O[C@H]1C[C@H](N)[C@H](O)[C@H](C)O1 [Doxorubicin HCl]
drug levels in blood in comparison to Doxil® [2]: below limit of detection
higher solubility of the methanesulfonate form versus ammonium sulfate [3]: at least 35 fold
solubility of doxorubicin in 250 mM ammonium alkyl or aryl sulfonate relative to 250 mM ammonium sulfate [3]: approximately 30 fold
precipitation in the presence of alkyl or aryl sulfonate ions ([3]; 70 mM): did not precipitate
concentration at which doxorubicin precipitates ([3]; in the presence of sulfate ions (ammonium sulfate)): less than 2 mM
Mean Body Weight ([4]; Day 22): 22.4 g
Mean Percentage Change in Body Weight ([4]; Day 22): 0.0%
Mean Body Weight ([4]; Day 24): 22.1 g
Mean Percentage Change in Body Weight ([4]; Day 24): −1.6%
Mean Body Weight ([4]; Day 26): 21.6 g
Mean Percentage Change in Body Weight ([4]; Day 26): −3.7%
Mean Body Weight ([4]; Day 28): 21.8 g
Mean Percentage Change in Body Weight ([4]; Day 28): −2.9%
Mean Body Weight ([4]; Day 30): 21.5 g
Mean Percentage Change in Body Weight ([4]; Day 30): −4.1%
Mean Body Weight ([4]; Day 32): 21.4 g
Mean Percentage Change in Body Weight ([4]; Day 32): −4.7%
Mean Body Weight ([4]; Day 34): 21.1 g
Mean Percentage Change in Body Weight ([4]; Day 34): −6.1%
Mean Body Weight ([4]; Day 36): 20.9 g
Mean Percentage Change in Body Weight ([4]; Day 36): −6.6%
Mean Body Weight ([4]; Day 38): 20.8 g
Mean Percentage Change in Body Weight ([4]; Day 38): −7.4%
Mean Body Weight ([4]; Day 40): 20.6 g
Mean Percentage Change in Body Weight ([4]; Day 40): −8.0%
Mean Body Weight ([4]; Day 42): 20.6 g
Mean Percentage Change in Body Weight ([4]; Day 42): −8.1%
Mean Body Weight ([4]; Day 44): 20.5 g
Mean Percentage Change in Body Weight ([4]; Day 44): −8.5%
Mean Body Weight ([4]; Day 46): 20.5* g
Mean Percentage Change in Body Weight ([4]; Day 46): −8.6%
Mean Body Weight ([4]; Day 48): 20.8* g
Mean Percentage Change in Body Weight ([4]; Day 48): −7.3%
Mean Body Weight ([4]; Day 50): 20.9* g
Mean Percentage Change in Body Weight ([4]; Day 50): −6.9%
Mean Body Weight ([4]; Day 52): 21.1* g
Mean Percentage Change in Body Weight ([4]; Day 52): −6.0%
Mean Body Weight ([4]; Day 56): 21.4 g
Mean Percentage Change in Body Weight ([4]; Day 56): −4.7%
Mean Body Weight ([4]; Day 59): 21.8 g
Mean Percentage Change in Body Weight ([4]; Day 59): −2.9%
Mean Body Weight ([4]; Day 63): 22.1 g
Mean Percentage Change in Body Weight ([4]; Day 63): −1.3%
maximum body weight loss ([4]; G2 on day 46, other groups on day 32 / 34 as printed): −8.6%
body weight gain by the end of experiment ([4]; mouse, in vivo): no body weight gain was observed
% Increased Life Span (% ILS) [5, 9]: 21.2%
Mean TVDT [5, 9]: 7 days
Median Survival Time (MST) [5, 9]: 63
median life span [5, 9]: 63 days
Log Cell Kill Value ([5]; 8 mg/kg i.v. once weekly for 2 weeks, derived from median tumor volume): 0.40
Median Tumor Volume ([5]; Day 22): 110.9 mm^3
Median Tumor Volume ([5]; Day 24): 128.6 mm^3
Median Tumor Volume ([5]; Day 26): 145.8 mm^3
Median Tumor Volume ([5]; Day 28): 173.8 mm^3
Median Tumor Volume ([5]; Day 30): 194.7 mm^3
Median Tumor Volume ([5]; Day 32): 215.5 mm^3
Median Tumor Volume ([5]; Day 34): 252.9 mm^3
Median Tumor Volume ([5]; Day 36): 311.1 mm^3
Median Tumor Volume ([5]; Day 38): 379.4 mm^3
Median Tumor Volume ([5]; Day 40): 453.8 mm^3
Median Tumor Volume ([5]; Day 42): 550.9 mm^3
Median Tumor Volume ([5]; Day 44): 673.4 mm^3
Median Tumor Volume ([5]; Day 46): 802.4 mm^3
Median Tumor Volume ([5]; Day 48): 1006.1 mm^3
Median Tumor Volume ([5]; Day 50): 1218.8 mm^3
Median Tumor Volume ([5]; Day 52): 1430.3 mm^3
Median Tumor Volume ([5]; Day 56): 1799.5 mm^3
Median Tumor Volume ([5]; Day 59): 2192.6 mm^3
Median Tumor Volume ([5]; Day 63): 2699.3 mm^3

O=C(O)[C@H](O)[C@@H](O)[C@H](O)[C@H](O)CO [Gluconate]
LogP (acid) [1]: −2.116
LogD (acid)- at pH = 5.5 [1]: −4.83

O=C(O)CO [Glycolate]
Encapsulation % (T0) [6, 10]: 41.19%
LogP (acid) [1]: −1.204

CC(=O)C(=O)O [Pyruvate]
Encapsulation % Short stability 5° C. After one week ([6]; counter anion 500 mM, salt pH 6): 15.38%
LogP (acid) [1]: −1.24
LogD (acid)- at pH = 5.5 [1]: −4.04

O=S(=O)(O)O [Sulfate]
Assay loss (%) at 254 nm [7]: <15%
Additional peaks [7]: no

CC[C@@]1(O)C(=O)OCc2c1cc1n(c2=O)Cc2cc3c(CN(C)C)c(O)ccc3nc2-1 [topotecan]
encapsulation efficiency (loading) ([8]; topotecan HCl 1.3 mg/ml, ammonium 350 mM, methanesulfonate 350 mM counter anion): 94%
encapsulation efficiency (loading) ([8]; topotecan HCl, 500 mM ammonium, 250 mM sulfate counter anion): 93%

Ethanesulfonate
LogP (acid) [1]: −1.577
LogD (acid)- at pH = 5.5 [1]: −4.85

Lactate
Encapsulation % Short stability 5° C. After one week [6, 11]: 48.68%
Encapsulation % (T0) ([6]; counter anion 250 mM, salt pH 4.5): 18.37%
Encapsulation % (T0) [6, 12]: 23.42%
Encapsulation % (T0) [6, 11]: 101.95%

Maleate
Encapsulation % (T0) [6, 12]: 36.23%
Encapsulation % (T0) [6, 10]: 22.55%

Methanesulfonate
Assay loss (%) at 254 nm [7]: <15%
Additional peaks [7]: no
Encapsulation % Short stability 5° C. After one week [6, 13]: 110.66%
Encapsulation % (T0) [6, 13]: 106.32%
LogP (acid) [1]: −2.087
LogD (acid)- at pH = 5.5 [1]: −5.39

Tartarate
LogP (acid) [1]: −1.081
